ChEMBL document CHEMBL4002562, “Terminal functionalized thiourea-containing dipeptides as multidrug-resistance reversers that target 20S proteasome and cell proliferation” (Eur J Med Chem, 2017)

Experiments:
[1] = target: T1, Proteasome Macropain subunit MB1 (Homo sapiens, UniProt P28074); test: Inhibition of chymotrypsin-like activity of human 20S proteasome using Suc-LLVY-AMC as substrate by fluorometric method
T1 sequence (P28074 whole entry): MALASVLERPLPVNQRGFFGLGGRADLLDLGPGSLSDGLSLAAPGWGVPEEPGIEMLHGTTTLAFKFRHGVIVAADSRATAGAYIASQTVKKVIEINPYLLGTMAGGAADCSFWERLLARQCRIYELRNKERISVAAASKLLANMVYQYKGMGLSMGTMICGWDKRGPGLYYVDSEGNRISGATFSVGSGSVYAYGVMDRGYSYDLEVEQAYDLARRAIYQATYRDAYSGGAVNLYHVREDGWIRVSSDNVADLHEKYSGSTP

NCI-H460 [2] = test: cells; settings: Homo sapiens, NCI-H460, 48 h
HepG2 [3] = test: Resistant factor, ratio of IC50 for human doxorubicin-resistant HepG2 cells to IC50 for human HepG2 cells; type: functional
L02 = test: Cytotoxicity against human HL-7702 cells after 48 hrs by MTT assay; type: cell-based; settings: L02, 48 h
NCI-H460 [4] = test: Resistant factor, ratio of IC50 for human doxorubicin-resistant NCI-H460 cells to IC50 for human NCI-H460 cells; type: functional
NCI-H460 [5] = test: Cytotoxicity against human NCI-H460 cells after 48 hrs by MTT assay; settings: NCI-H460, 48 h
HepG2 [6] = test: Cytotoxicity against human doxorubicin-resistant HepG2 cells after 48 hrs by MTT assay; type: functional, cell-based; settings: HepG2, 48 h
HepG2 [7] = test: cells; settings: Homo sapiens, HepG2, 48 h
Description: Cytotoxicity against human HepG2 cells after 48 hrs by MTT assay

[8] = target: Proteasome Macropain subunit (Homo sapiens, UniProt P49721); test: Inhibition of trypsin-like activity of human 20S proteasome using Bz-VGR-AMC as substrate by fluorometric method
NCI-H460 [9] = test: Induction of apoptosis in human NCI-H460 cells assessed as damaged cells at 4 uM after 24 hrs in presence of p-gp inhibitor LY335979 by Annexin V-PE/7-AAD staining-based flow cytometric analysis (reference value: 9.98%); type: functional
NCI-H460 [10] = test: Induction of apoptosis in human NCI-H460 cells assessed as late apoptotic/necrotic cells at 4 uM after 24 hrs in presence of p-gp inhibitor LY335979 by Annexin V-PE/7-AAD staining-based flow cytometric analysis (reference value: 5.73%); type: functional
NCI-H460 [11] = test: Induction of apoptosis in human NCI-H460 cells assessed as viable cells at 4 uM after 24 hrs by Annexin V-PE/7-AAD staining-based flow cytometric analysis (reference value: 83%); type: functional; settings: NCI-H460, 24 h, read-out: Activity
NCI-H460 [12] = test: Induction of apoptosis in doxorubicin-resistant human NCI-H460 cells assessed as early apoptotic cells at 4 uM after 24 hrs by Annexin V-PE/7-AAD staining-based flow cytometric analysis (reference value: 1.40%); type: functional
NCI-H460 [13] = test: Induction of apoptosis in doxorubicin-resistant human NCI-H460 cells assessed as late apoptotic/necrotic cells at 4 uM after 24 hrs by Annexin V-PE/7-AAD staining-based flow cytometric analysis (reference value: 2.87%); type: functional
NCI-H460 [14] = test: Induction of apoptosis in doxorubicin-resistant human NCI-H460 cells assessed as damaged cells at 4 uM after 24 hrs by Annexin V-PE/7-AAD staining-based flow cytometric analysis (reference value: 0.493%); type: functional
NCI-H460 [15] = test: Induction of apoptosis in human NCI-H460 cells assessed as early apoptotic cells at 4 uM after 24 hrs in presence of p-gp inhibitor LY335979 by Annexin V-PE/7-AAD staining-based flow cytometric analysis (reference value: 1.33%); type: functional
NCI-H460 [16] = test: Induction of apoptosis in doxorubicin-resistant human NCI-H460 cells assessed as viable cells at 4 uM after 24 hrs by Annexin V-PE/7-AAD staining-based flow cytometric analysis (reference value: 95.2%); type: functional; settings: NCI-H460, 24 h, read-out: Activity
NCI-H460 [17] = test: Induction of apoptosis in doxorubicin-resistant human NCI-H460 cells assessed as early apoptotic cells at 4 uM after 24 hrs in presence of p-gp inhibitor LY335979 by Annexin V-PE/7-AAD staining-based flow cytometric analysis (reference value: 1.40%); type: functional
NCI-H460 [18] = test: Induction of apoptosis in doxorubicin-resistant human NCI-H460 cells assessed as viable cells at 4 uM after 24 hrs in presence of p-gp inhibitor LY335979 by Annexin V-PE/7-AAD staining-based flow cytometric analysis (reference value: 95.2%); type: functional; settings: NCI-H460, 24 h, read-out: Activity
NCI-H460 [19] = test: Induction of apoptosis in human NCI-H460 cells assessed as late apoptotic/necrotic cells at 4 uM after 24 hrs by Annexin V-PE/7-AAD staining-based flow cytometric analysis (reference value: 5.73%); type: functional
NCI-H460 [20] = test: Induction of apoptosis in doxorubicin-resistant human NCI-H460 cells assessed as damaged cells at 4 uM after 24 hrs in presence of p-gp inhibitor LY335979 by Annexin V-PE/7-AAD staining-based flow cytometric analysis (reference value: 0.493%); type: functional
NCI-H460 [21] = test: Induction of apoptosis in human NCI-H460 cells assessed as early apoptotic cells at 4 uM after 24 hrs by Annexin V-PE/7-AAD staining-based flow cytometric analysis (reference value: 1.33%); type: functional
NCI-H460 [22] = test: Induction of apoptosis in doxorubicin-resistant human NCI-H460 cells assessed as late apoptotic/necrotic cells at 4 uM after 24 hrs in presence of p-gp inhibitor LY335979 by Annexin V-PE/7-AAD staining-based flow cytometric analysis (reference value: 2.87%); type: functional
NCI-H460 [23] = test: Induction of apoptosis in human NCI-H460 cells assessed as damaged cells at 4 uM after 24 hrs by Annexin V-PE/7-AAD staining-based flow cytometric analysis (reference value: 9.98%); type: functional
NCI-H460 [24] = test: Induction of apoptosis in human NCI-H460 cells assessed as viable cells at 4 uM after 24 hrs in presence of p-gp inhibitor LY335979 by Annexin V-PE/7-AAD staining-based flow cytometric analysis (reference value: 83%); type: functional; settings: NCI-H460, 24 h, read-out: Activity

Chain of Proteasome Macropain subunit (P49721 whole entry): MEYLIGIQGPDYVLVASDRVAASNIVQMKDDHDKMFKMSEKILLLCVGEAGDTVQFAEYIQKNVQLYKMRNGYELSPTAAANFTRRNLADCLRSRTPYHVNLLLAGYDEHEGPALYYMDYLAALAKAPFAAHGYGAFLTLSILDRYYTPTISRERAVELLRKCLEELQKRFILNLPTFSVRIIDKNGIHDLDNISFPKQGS

Compound | IC50 [1] [µM] | IC50 (NCI-H460 [2]) [µM] | Ratio IC50 (HepG2 [3]) | IC50 (L02) [µM] | Ratio IC50 (NCI-H460 [4]) | IC50 (NCI-H460 [5]) [µM] | IC50 (HepG2 [6]) [µM] | IC50 (HepG2 [7]) [µM] | other results
CC[C@H](C)[C@H](/N=C(/Nc1cccc(C(F)(F)F)c1)SC)C(=O)N[C@H](Cc1ccccc1)C(=O)Nc1ccc(Cl)c(Cl)c1 | 22.2 |  |  |  |  |  |  |  | 
CC[C@H](C)[C@H](NC(=S)Nc1cccc([N+](=O)[O-])c1)C(=O)N[C@H](Cc1ccccc1)C(=O)Nc1ccc(F)cc1 | 1.97 | 42.4 | 2.78 | > 50 | 2.09 | 20.2 | 48.5 | 17.5 | 
CC[C@H](C)[C@H](NC(=S)Nc1cccc([N+](=O)[O-])c1)C(=O)N[C@H](Cc1ccccc1)C(=O)Nc1ccc(Br)cc1 | 2.71 | 35.2 | 2.76 | > 50 | 2.18 | 16.2 | 48.2 | 17.4 | 
CC[C@H](C)[C@H](NC(=S)Nc1cccc([N+](=O)[O-])c1)C(=O)N[C@H](Cc1ccccc1)C(=O)Nc1ccc(OC)cc1 | 29 |  |  |  |  |  |  |  | 
CC[C@H](C)[C@H](NC(=S)Nc1cccc(C(F)(F)F)c1)C(=O)N[C@H](Cc1ccccc1)C(=O)Nc1ccc(Cl)c(Cl)c1 | 0.017 | 15.5 | 2.44 | > 50 | 2.52 | 6.14 | 29.6 | 12.1 | IC50 [8]: Not Active
COc1cccc2c1C(=O)c1c(O)c3c(c(O)c1C2=O)C[C@@](O)(C(=O)CO)C[C@@H]3O[C@H]1C[C@H](N)[C@H](O)[C@H](C)O1 [DOXORUBICIN] |  |  |  | 12.2 |  |  | > 50 | 6.91 | 
CC[C@H](C)[C@H](/N=C(/Nc1cccc([N+](=O)[O-])c1)SC)C(=O)N[C@H](Cc1ccccc1)C(=O)Nc1ccc(C)c(C)c1 | > 50 |  |  |  |  |  |  |  | 
CC[C@H](C)[C@H](NC(=S)Nc1cccc(C(F)(F)F)c1)C(=O)N[C@H](Cc1ccccc1)C(=O)Nc1cccc(C(F)(F)F)c1 | 19.6 |  |  |  |  |  |  |  | 
CC[C@H](C)[C@H](NC(=S)Nc1cccc([N+](=O)[O-])c1)C(=O)N[C@H](Cc1ccccc1)C(=O)Nc1cccc(Cl)c1 | 5.84 | 31.7 |  | > 50 | 2.32 | 13.6 | > 50 | 20.7 | 
CC[C@H](C)[C@H](NC(=S)Nc1cccc([N+](=O)[O-])c1)C(=O)N[C@H](Cc1ccccc1)C(=O)Nc1ccc(Cl)c(Cl)c1 | 1.36 | 32.3 | 2.82 | > 50 | 2.18 | 14.8 | 37.4 | 13.3 | 
CC[C@H](C)[C@H](NC(=S)Nc1ccc(C(F)(F)F)cc1)C(=O)N[C@H](Cc1ccccc1)C(=O)Nc1cccc(Br)c1 | 0.022 | 11.2 | 1.47 | > 50 | 1.58 | 7.13 | 27.4 | 18.6 | 
CC[C@H](C)[C@H](NC(=S)Nc1cccc([N+](=O)[O-])c1)C(=O)N[C@H](Cc1ccccc1)C(=O)Nc1ccc(C)c(C)c1 | > 50 |  |  |  |  |  |  |  | 
CC[C@H](C)[C@H](NC(=S)Nc1ccc(Br)cc1)C(=O)N[C@H](Cc1ccccc1)C(=O)Nc1ccc(C)c(Cl)c1 | > 50 |  |  |  |  |  |  |  | 
CC[C@H](C)[C@H](NC(=S)Nc1cccc([N+](=O)[O-])c1)C(=O)N[C@H](Cc1ccccc1)C(=O)Nc1cccc(C(F)(F)F)c1 | 0.0086 | 6.74 | 2.12 | > 50 | 3.96 | 1.7 | 10.2 | 4.8 | Activity (NCI-H460 [9]): 13.9%; Activity (NCI-H460 [10]): 24.2%; viability at 4 µM (NCI-H460 [11]): 74.2%; Activity (NCI-H460 [12]): 11.4%; Activity (NCI-H460 [13]): 5.96%; Activity (NCI-H460 [14]): 1.9%; Activity (NCI-H460 [15]): 4.86%; viability at 4 µM (NCI-H460 [16]): 80.8%; Activity (NCI-H460 [17]): 31.9%; viability at 4 µM (NCI-H460 [18]): 32.5%; IC50 [8]: Not Active; Activity (NCI-H460 [19]): 7.76%; Activity (NCI-H460 [20]): 5.72%; Activity (NCI-H460 [21]): 13.3%; Activity (NCI-H460 [22]): 29.9%; Activity (NCI-H460 [23]): 4.72%; viability at 4 µM (NCI-H460 [24]): 57%
CC[C@H](C)[C@H](NC(=S)Nc1cccc([N+](=O)[O-])c1)C(=O)N[C@H](Cc1ccccc1)C(=O)Nc1cccc(OC)c1 | 22.3 |  |  |  |  |  |  |  | 
CC[C@H](C)[C@H](NC(=S)Nc1cccc([N+](=O)[O-])c1)C(=O)N[C@H](Cc1ccccc1)C(=O)Nc1ccc(C)c(Cl)c1 | > 50 |  |  |  |  |  |  |  | 
CC[C@H](C)[C@H](NC(=S)Nc1cccc([N+](=O)[O-])c1)C(=O)N[C@H](Cc1ccccc1)C(=O)Nc1cccc(F)c1 | 3.57 | 28.6 | 2.04 | > 50 | 2.33 | 12.3 | 36.8 | 18 | 
CC[C@H](C)[C@H](/N=C(/Nc1cccc(C(F)(F)F)c1)SC)C(=O)N[C@H](Cc1ccccc1)C(=O)Nc1cccc(C(F)(F)F)c1 | 8.83 | > 50 | 2.55 | > 50 |  | 20.3 | 49.2 | 19.3 | IC50 [8]: Not Active
